# Test system: HBV
# Assay: HBV-DNA antiviral assay using HepG2.117 cells (intracellular HBV DNA by qPCR)
# Assay type: cell-based, genotype D HBV
# Settings: Hepatitis B virus, 72 h, HBV DNA inhibition, 3 days incubation, 2% DMSO
# Method: The following assay procedure describes the HBV antiviral assay, using HepG2.117 cells, which carry a stably integrated genotype D HBV genome under the control of a Tet-off promoter, and intracellular HBV DNA quantification as endpoint. Cell viability is assessed in parallel by measuring the intracellular ATP content using CellTiter-Glo 2.0 (Promega).
# On day 0, HepG2.117 cells (which are maintained in routine cell culture with doxycycline present in the medium at a final concentration of 1 μg/mL) were seeded in 96-well plates (white with clear bottom) at a density of 2.0×10^4 cells/well (0.1 mL/well) in medium without doxycycline to induce pgRNA transcription and subsequent formation of HBV particles. The cells were incubated at 37° C. and 5% CO2.
# On day 1, medium was removed from each well, the test articles were diluted in culture medium without doxcycyline and 100 μL was added to cell culture wells (9 concentrations, 4-fold dilution). For each plate, 6 untreated (merely DMSO) wells were included. The final concentration of DMSO in the culture medium was 2%. Each plate was prepared in duplicate (one for HBV DNA extraction, one for CellTiter-Glo 2.0 measurement). The cells were incubated at 37° C. and 5% CO2 for 3 days.
# On day 4, cell viability was assessed using CellTiter-Glo 2.0 and cell lysates were prepared for HBV DNA extraction and subsequent quantification by qPCR.
# HBV DNA Quantification by qPCR
# Medium was removed from each well and 100 μL of 0.33% NP-40 in H2O was added to each well. Plates were sealed, incubated at 4° C. for 5 mins, vortexed extensively and centrifuged briefly. Next, 35 μL of lysate was added to 65 μL QuickExtract DNA Extraction Solution (Epicentre) in a PCR plate for each well. PCR plate was incubated at 65° C. for 6 mins, 98° C. for 2 mins and finally cooled to 4° C. HBV DNA was then quantified by qPCR with HBV-specific primers and probes as specified in Table 1 using the Bio-Rad SSOAdvanced Universal Probes Supermix on a CFX96 machine (Bio-Rad). The PCR cycle program consisted of 95° C. for 3 mins, followed by 40 cycles at 95° C. for 10 sec and 60° C. for 30 sec.
# A DNA standard was prepared by dilution of an IDT gBlock corresponding to the amplicon with concentrations ranging from 10^2 to 10^8 copies/input (i.e. per 4 μL) and used to generate a standard curve by plotting Cq values vs. HBV DNA standard concentration. The quantity of HBV DNA in each sample was determined by interpolating from the standard curve.
# Cell viability was calculated as follows: % Cell viability=(luminescence value of test sample)/(average luminescence value of 2% DMSO control)×100%. HBV DNA inhibition was calculated as follows: 100−(HBV DNA copy number of test sample)/(average HBV DNA copy number of 2% DMSO control)×100%. No normalization to entecavir was required due to the excellent dynamic window of this assay. The CC50, EC50 and EC90 values were determined by dose-response curves fitted by GraphPad Prism using “log (agonist) vs. response—Variable slope”.
row,SMILES,EC50 [µM]
1,"CNC(=O)c1ccc(-n2c(=O)c3c(n4ncc(CC(C)C)c24)CN(C(=O)c2ccc(Br)c(C(F)(F)F)c2)[C@@H](C)C3)cc1 (stereo in doubt) [Compound 50b, N-methyl-4-[rac-(11S)-12-[4-bromo-3-(trifluoromethyl)benzoyl]-5-isobutyl-11-methyl-8-oxo-2,3,7,12-tetrazatricyclo[7.4.0.0^2,6]trideca-1(9),3,5-trien-7-yl]benzamide]",0.05 to 0.5
2,"C[C@@H]1Cc2c(n3ncc(CC4CCC4)c3n(-c3ccc(-c4nncn4C)cc3)c2=O)CN1C(=O)c1ccc(Cl)c(C(F)(F)F)c1 (stereo in doubt) [Compound 51a, rac-(11R)-12-[4-chloro-3-(trifluoromethyl)benzoyl]-5-(cyclobutylmethyl)-11-methyl-7-[4-(4-methyl-1,2,4-triazol-3-yl)phenyl]-2,3,7,12-tetrazatricyclo[7.4.0.0^2,6]trideca-1(9),3,5-trien-8-one]",< 0.05
3,"C[C@H]1Cc2c(n3ncc(CC4CCC4)c3n(-c3ccc(-c4nncn4C)cc3)c2=O)CN1C(=O)c1ccc(Cl)c(C(F)(F)F)c1 (stereo in doubt) [Compound 51b, rac-(11S)-12-[4-chloro-3-(trifluoromethyl)benzoyl]-5-(cyclobutylmethyl)-11-methyl-7-[4-(4-methyl-1,2,4-triazol-3-yl)phenyl]-2,3,7,12-tetrazatricyclo[7.4.0.0^2,6]trideca-1(9),3,5-trien-8-one]",0.5 to 5
4,"Cc1nnc(-c2ccc(-n3c(=O)c4c(n5ncc(Cc6ccccc6)c35)CN(C(=O)c3ccc(Cl)c(C(F)(F)F)c3)[C@H](C)C4)cc2)[nH]1 (stereo in doubt) [Compound 52a, rac-(11R)-5-benzyl-12-[4-chloro-3-(trifluoromethyl)benzoyl]-11-methyl-7-[4-(5-methyl-4H-1,2,4-triazol-3-yl)phenyl]-2,3,7,12-tetrazatricyclo[7.4.0.0^2,6]trideca-1(9),3,5-trien-8-one]",< 0.05
5,"Cc1nnc(-c2ccc(-n3c(=O)c4c(n5ncc(Cc6ccccc6)c35)CN(C(=O)c3ccc(Cl)c(C(F)(F)F)c3)[C@@H](C)C4)cc2)[nH]1 (stereo in doubt) [Compound 52b, rac-(11S)-5-benzyl-12-[4-chloro-3-(trifluoromethyl)benzoyl]-11-methyl-7-[4-(5-methyl-4H-1,2,4-triazol-3-yl)phenyl]-2,3,7,12-tetrazatricyclo[7.4.0.0^2,6]trideca-1(9),3,5-trien-8-one]",0.05 to 0.5
6,"Cc1nnc(-c2ccc(-n3c(=O)c4c(n5ncc(Cc6ccccc6)c35)CN(C(=O)c3ccc(Br)c(Cl)c3)[C@H](C)C4)cc2)[nH]1 (stereo in doubt) [Compound 53a, rac-(11R)-5-benzyl-12-(4-bromo-3-chloro-benzoyl)-11-methyl-7-[4-(5-methyl-4H-1,2,4-triazol-3-yl)phenyl]-2,3,7,12-tetrazatricyclo[7.4.0.0^2,6]trideca-1(9),3,5-trien-8-one]",< 0.05
7,"Cc1nnc(-c2ccc(-n3c(=O)c4c(n5ncc(Cc6ccccc6)c35)CN(C(=O)c3ccc(Br)c(Cl)c3)[C@@H](C)C4)cc2)[nH]1 (stereo in doubt) [Compound 53b, rac-(11S)-5-benzyl-12-(4-bromo-3-chloro-benzoyl)-11-methyl-7-[4-(5-methyl-4H-1,2,4-triazol-3-yl)phenyl]-2,37,12-tetrazatricyclo[7.4.0.0^2,6]trideca-1(9),3,5-trien-8-one]",0.05 to 0.5
8,"CNC(=O)c1ccc(-n2c(=O)c3c(n4ncc(CC(C)C)c24)CN(C(=O)c2ccc(Cl)c(C(F)(F)F)c2)[C@H](C)C3)cc1 (stereo in doubt) [Compound 54a, N-methyl-4-[rac-(11R)-12-[4-chloro-3-(trifluoromethyl)benzoyl]-5-isobutyl-11-methyl-8-oxo-2,3,7,12-tetrazatricyclo[7,4.0.0^2,6]trideca-1(9),3,5-trien-7-yl]benzamide]",< 0.05
9,"CNC(=O)c1ccc(-n2c(=O)c3c(n4ncc(CC(C)C)c24)CN(C(=O)c2ccc(Cl)c(C(F)(F)F)c2)[C@@H](C)C3)cc1 (stereo in doubt) [Compound 54b, N-methyl-4-[rac-(11S)-12-[4-chloro-3-(trifluoromethyl)benzoyl]-5-isobutyl-11-methyl-8-oxo-2,3,7,12-tetrazatricyclo[7.4.0.0^2,6]trideca-1(9),3,5-trien-7-yl]benzamide]",0.05 to 0.5
10,"CNC(=O)c1ccc(-n2c(=O)c3c(n4ncc(CC(C)C)c24)CN(C(=O)c2ccc(Br)c(Cl)c2)[C@H](C)C3)cc1 (stereo in doubt) [Compound 55a, N-methyl-4-[rac-(11R)-12-(4-bromo-3-chloro-benzoyl)-5-isobutyl-11-methyl-8-oxo-2,3,7,12-tetrazatricyclo[7.4.0.0^2,6]trideca-1(9),3,5-trien-7-yl]benzamide]",< 0.05
11,"CNC(=O)c1ccc(-n2c(=O)c3c(n4ncc(CC(C)C)c24)CN(C(=O)c2ccc(Br)c(Cl)c2)[C@@H](C)C3)cc1 (stereo in doubt) [Compound 55b, N-methyl-4-[rac-(11S)-12-(4-bromo-3-chloro-benzoyl)-5-isobutyl-11-methyl-8-oxo-2,3,7,12-tetrazatricyclo[7.4.0.0^2,6]trideca-1(9),3,5-trien-7-yl]benzamide]",0.05 to 0.5
12,"CNc1n[nH]c2cc(-n3c(=O)c4c(n5ncc(CC(C)C)c35)CN(C(=O)c3ccc(Cl)c(C(F)(F)F)c3)[C@H](C)C4)ccc12 (stereo in doubt) [Compound 56a, rac-(11R)-12-[4-chloro-3-(trifluoromethyl)benzoyl]-5-isobutyl-11-methyl-7-[3-(methylamino)-1H-indazol-6-yl]-2,3,7,12-tetrazatricyclo[7.4.0.0^2,6]trideca-1(9),3,5-trien-8-one]",< 0.05
13,"CNc1n[nH]c2cc(-n3c(=O)c4c(n5ncc(CC(C)C)c35)CN(C(=O)c3ccc(Cl)c(C(F)(F)F)c3)[C@@H](C)C4)ccc12 (stereo in doubt) [Compound 56b, rac-(11S)-12-[4-chloro-3-(trifluoromethyl)benzoyl]-5-isobutyl-11-methyl-7-[3-(methylamino)-1H-indazol-6-yl]-2,3,7,12-tetrazatricyclo[7.4.0.0^2,6]trideca-1(9),3,5-trien-8-one]",0.05 to 0.5
14,"CNc1n[nH]c2cc(-n3c(=O)c4c(n5ncc(CC(C)C)c35)CN(C(=O)c3ccc(Br)c(Cl)c3)[C@H](C)C4)ccc12 (stereo in doubt) [Compound 57a, rac-(11R)-12-(4-bromo-3-chloro-benzoyl)-5-isobutyl-11-methyl-7-[3-(methylamino)-1H-indazol-6-yl]-2,3,7,12-tetrazatricyclo[7.4.0.0^2,6]trideca-1(9),3,5-trien-8-one]",< 0.05
15,"CNc1n[nH]c2cc(-n3c(=O)c4c(n5ncc(CC(C)C)c35)CN(C(=O)c3ccc(Br)c(Cl)c3)[C@@H](C)C4)ccc12 (stereo in doubt) [Compound 57b, rac-(11S)-12-(4-bromo-3-chloro-benzoyl)-5-isobutyl-11-methyl-7-[3-(methylamino)-1H-indazol-6-yl]-2,3,7,12-tetrazatricyclo[7.4.0.0^2,6]trideca-1(9),3,5-trien-8-one]",0.05 to 0.5
16,"C[C@@H]1Cc2c(n3ncc(Cc4ccccc4)c3n(-c3ccc(-c4n[nH]c(=O)n4C)cc3)c2=O)CN1C(=O)c1ccc(Br)c(C(F)(F)F)c1 (stereo in doubt) [Compound 58a, rac-(11R)-5-benzyl-12-[4-bromo-3-(trifluoromethyl)benzoyl]-11-methyl-7-[4-(4-methyl-5-oxo-1H-1,2,4-triazol-3-yl)phenyl]-2,3,7,12-tetrazatricyclo[7.4.0.0^2,6]trideca-1(9),3,5-trien-8-one]",< 0.05
17,"C[C@H]1Cc2c(n3ncc(Cc4ccccc4)c3n(-c3ccc(-c4n[nH]c(=O)n4C)cc3)c2=O)CN1C(=O)c1ccc(Br)c(C(F)(F)F)c1 (stereo in doubt) [Compound 58b, rac-(11S)-5-benzyl-12-[4-bromo-3-(trifluoromethyl)benzoyl]-11-methyl-7-[4-(4-methyl-5-oxo-1H-1,2,4-triazol-3-yl)phenyl]-2,3,7,12-tetrazatricyclo[7.4.0.0^2,6]trideca-1(9),3,5-trien-8-one]",< 0.05

# — US11820773B2, “Tricyclic compounds” (ALIGOS THERAPEUTICS, INC., priority 2020, dated 2023)
